Results reported in patent US6124328A, “Methods and compositions for stimulating neurite growth” (Vertex Pharmaceuticals Incorporated, priority 1997, dated 2000).

Target: FKBP12 (Homo sapiens, UniProt P62942)
Test: FKBP12 Binding Assay: inhibition of FKBP rotomase activity (cis-N-succinyl-Ala-Ala-Pro-Phe-p-nitroanilide / chymotrypsin), apparent Ki
Assay type: biochemical
Details: Table 1a, formula Ia, compound 0.1 nM-10 μM
Text: Preferably, the assay measures inhibition of FKBP12 rotomase activity. Such an assay has also been described by M. W. Harding et al., supra and by J. J. Siekierka et al., supra. In this assay the isomerization of an artificial substrate--N-succinyl-Ala-Ala-Pro-Phe-p-nitroanilide--is followed spectrophotometrically. The assay includes the cis form of the substrate, FKBP12, the inhibitor and chymotrypsin. Chymotrypsin is able to cleave p-nitroanilide from the trans form of the substrate, but not the cis form. Release of p-nitroanilide is measured.
In this assay various quantities of FKBP12 binding compound (0.1 nM-10 μM) were added to cis-N-succinyl-Ala-Ala-Pro-Phe-p-nitroanilide in the presence of FKBP12 and chymotrypsin. FKBP12 converts the cis form of the substrate to the trans form. This allows chymotrypsin to cleave p-nitroanilide from the substrate. Release of p-nitroanilide was measured spectrophotometrically.

Sequence of FKBP12 (P62942 whole entry): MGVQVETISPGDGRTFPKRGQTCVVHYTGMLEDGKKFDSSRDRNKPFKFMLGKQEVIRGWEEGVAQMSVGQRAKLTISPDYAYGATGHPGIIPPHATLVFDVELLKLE

| SMILES | Ki |
| --- | --- |
| COc1cc(C(=O)C(=O)N2CCCC[C@H]2C(=O)OCCCC(C)C2CCCCC2)cc(OC)c1OC (some centres unmarked) | 90 nM |

Same assay, conditions: Table 2, formula II', compound 0.1 nM-10 μM

| SMILES | Ki |
| --- | --- |
| CCCC(OC(=O)[C@@H]1CCCCN1C(=O)C(=O)c1cc(OC)c(OC)c(OC)c1)c1cc(OCc2ccncc2)c(OCc2ccncc2)c(OCc2ccncc2)c1 (some centres unmarked) [compound 81] | 5 nM |
| COc1cc(C(=O)C(=O)N2CCCC[C@H]2C(=O)OC(c2cc(OCc3ccncc3)c(OCc3ccncc3)c(OCc3ccncc3)c2)C(C)C)cc(OC)c1OC (some centres unmarked) [compound 116] | 13 nM |
| COc1cc(C(=O)C(=O)N2CCCC[C@H]2C(=O)OC(CCCc2ccccc2)c2cccc(OCc3ccncc3)c2)cc(OC)c1OC (some centres unmarked) [compound 64] | 1.4 nM |
| COc1cc(C(=O)C(=O)N2CCCC[C@H]2C(=O)OC(C)c2ccc(OCc3ccncc3)c(OCc3ccncc3)c2OC(C)C)cc(OC)c1OC (some centres unmarked) [compound 84] | 54 nM |
| CC(C)C(=O)C(=O)N1CCCC[C@H]1C(=O)OC(CCCc1cccnc1)CCCc1cccnc1 [compound 109] | 1500 nM |
| COc1cc(C(=O)C(=O)N2CCCC[C@H]2C(=O)OC(CCCc2ccccc2)c2cccc(C(=O)c3cccnc3)c2)cc(OC)c1OC (some centres unmarked) [compound 92] | 9 nM |
| COc1cc(C(=O)C(=O)N2CCCC[C@H]2C(=O)OC(CCCc2ccccc2)CCCc2ccc(C(=O)N3CCN(C)CC3)cc2)cc(OC)c1OC (some centres unmarked) [compound 57] | 5.6 nM |
| COc1cc(C(=O)C(=O)N2CCCC[C@H]2C(=O)OC(c2cccnc2)c2cccc(OCc3ccncc3)c2)cc(OC)c1OC (some centres unmarked) [compound 63] | 13 nM |
| COc1cc(C(=O)C(=O)N2CCCC[C@H]2C(=O)OC(CCCc2ccccc2)CCCn2cnc3ccccc32)cc(OC)c1OC (some centres unmarked) [compound 15] | 5 nM |
| C=CCOc1c(OC)cc(C(=O)C(=O)N2CCCC[C@H]2C(=O)OC(CCCc2ccccc2)c2cccc(C(=O)c3ccncc3)c2)cc1OC (some centres unmarked) [compound 95] | 3.6 nM |
| COc1cc(C(=O)C(=O)N2CCCC[C@H]2C(=O)OC(CCCc2ccccc2)CCC(C)c2ccccc2)cc(OC)c1OC (some centres unmarked) [compound 32] | 20 nM |
| CCC(OC(=O)[C@@H]1CCCCN1C(=O)C(=O)c1cc(OC)c(OC)c(OC)c1)c1cc(OCc2ccncc2)c(OCc2ccncc2)c(OCc2ccncc2)c1 (some centres unmarked) [compound 74] | 18 nM |
| COc1cc(C(=O)C(=O)N2CCCC[C@H]2C(=O)OC(CCCc2cccnc2)CCCc2cccnc2)cc(OC)c1OC [compound 106] | 3.7 nM |
| COc1cc(C(=O)C(=O)N2CCCC[C@H]2C(=O)OC(CCCc2ccccc2)CCCc2ccc(C(=O)N3CCOCC3)cc2)cc(OC)c1OC (some centres unmarked) [compound 44] | 6 nM |
| COc1cc(C(=O)C(=O)N2CCCC[C@H]2C(=O)OC(CCCc2ccccc2)CCCc2cccc(C(=O)N3CCOCC3)c2)cc(OC)c1OC (some centres unmarked) [compound 52] | 1.5 nM |
| CCC(OC(=O)[C@@H]1CCCCN1C(=O)C(=O)c1cc(OC)c(OC)c(OC)c1)c1cc(OCc2ccncc2)c(OCc2ccncc2)c(OCc2ccncc2)c1 (some centres unmarked) [compound 75] | 12 nM |

| SMILES | Ki |
| --- | --- |
| COc1cc(C(=O)C(=O)N2CCCC[C@H]2C(=O)OC(C)c2cc(OCc3ccncc3)cc(OCc3ccncc3)c2)cc(OC)c1OC (some centres unmarked) [compound 72] | 12 nM |
| COc1cc(C(=O)C(=O)N2CCCC[C@H]2C(=O)OC(CCCc2ccccc2)CCCc2ccc(C(=O)NCc3ccccc3)cc2)cc(OC)c1OC (some centres unmarked) [compound 54] | 1.6 nM |
| COc1cc(C(=O)C(=O)N2CCCC[C@H]2C(=O)OC(CCCc2ccccc2)CCCc2ccc(C(=O)N(C)C)cc2)cc(OC)c1OC (some centres unmarked) [compound 43] | 5 nM |
| COc1ccc(C(=O)C(=O)N2CCCC[C@H]2C(=O)OC(CCCc2ccccc2)c2cccc(C(=O)c3ccncc3)c2)cc1OCc1ccccc1 (some centres unmarked) [compound 96] | 25 nM |
| COc1cc(C(=O)C(=O)N2CCC[C@H]2C(=O)OC(C)c2cc(OCc3ccncc3)c(OCc3ccncc3)c(OCc3ccncc3)c2)cc(OC)c1OC (some centres unmarked) [compound 86] | 280 nM |
| COc1cc(C(=O)C(=O)N2CCCC[C@H]2C(=O)OC(CCCc2ccccc2)CCCc2cccc(C(=O)NCc3ccccc3)c2)cc(OC)c1OC (some centres unmarked) [compound 59] | 40 nM |
| COc1cc(C(=O)C(=O)N2CCCC[C@H]2C(=O)OC(CCCc2ccccc2)CCCc2ccc(C(=O)N3CCSCC3)cc2)cc(OC)c1OC (some centres unmarked) [compound 55] | 2.4 nM |
| CCCC(OC(=O)[C@@H]1CCCCN1C(=O)C(=O)c1cc(OC)c(OC)c(OC)c1)c1cc(OCc2ccncc2)c(OCc2ccncc2)c(OCc2ccncc2)c1 (some centres unmarked) [compound 80] | 17 nM |
| COc1cc(C(=O)C(=O)N2CCCC[C@H]2C(=O)OC(C)c2cc(OCc3ccncc3)c(OCc3ccncc3)c(OCc3ccncc3)c2)cc(OC)c1OC (some centres unmarked) [compound 69] | 36 nM |
| COc1cc(C(=O)C(=O)N2CCCC[C@H]2C(=O)OC(CCCc2ccccc2)c2cccc(C(=O)c3ccncc3)c2)cc(OC)c1OCc1ccccc1 (some centres unmarked) [compound 94] | 25 nM |
| COc1cc(C(=O)C(=O)N2CCCC[C@H]2C(=O)OC(CCCc2ccccc2)c2cc(OCc3ccncc3)c(OCc3ccncc3)c(OCc3ccncc3)c2)cc(OC)c1OC (some centres unmarked) [compound 70] | 5 nM |
| C=CCOc1ccccc1C(CCCc1ccccc1)OC(=O)[C@@H]1CCCCN1C(=O)C(=O)c1cc(OC)c(OC)c(OC)c1 (some centres unmarked) [compound 34] | 150 nM |
| COc1cc(C(=O)C(=O)N2CCCC[C@H]2C(=O)OC(CCCc2ccccc2)CCCc2ccc(C(=O)N3CCCCC3)cc2)cc(OC)c1OC (some centres unmarked) [compound 47] | 7 nM |
| C=CCC(OC(=O)[C@@H]1CCCCN1C(=O)C(=O)c1cc(OC)c(OC)c(OC)c1)c1cc(OCc2ccncc2)c(OCc2ccncc2)c(OCc2ccncc2)c1 (some centres unmarked) [compound 76] | 14 nM |
| COc1cc(C(=O)C(=O)N2CCC[C@H]2C(=O)OC(CCCc2cccnc2)CCCc2cccnc2)cc(OC)c1OC [compound 108] | 89 nM |

Tested on: inositol 1,4,5-triphosphate receptor (IP3 R)
Test: not given
Details: cited from earlier work

| SMILES | dissociating FKBP12 from the receptor |
| --- | --- |
| C=CC[C@@H]1/C=C(\C)C[C@H](C)C[C@H](OC)[C@H]2O[C@@](O)(C(=O)C(=O)N3CCCC[C@H]3C(=O)O[C@H](/C(C)=C/[C@@H]3CC[C@@H](O)[C@H](OC)C3)[C@H](C)[C@@H](O)CC1=O)[C@H](C)C[C@@H]2OC [FK-506] | capable of dissociating FKBP12 from the receptor |
| CO[C@H]1C[C@@H]2CC[C@@H](C)[C@@](O)(O2)C(=O)C(=O)N2CCCC[C@H]2C(=O)O[C@H]([C@H](C)C[C@@H]2CC[C@@H](O)[C@H](OC)C2)CC(=O)[C@H](C)/C=C(\C)[C@@H](O)[C@@H](OC)C(=O)[C@H](C)C[C@H](C)/C=C/C=C/C=C/1C [rapamycin] | capable of dissociating FKBP12 from the receptor |

Tested on: dorsal root ganglia (sensory ganglia)
Test: not given
Details: Lyons et al.; cited from earlier work

| SMILES | neurotrophic effects in sensory ganglia |
| --- | --- |
| C=CC[C@@H]1/C=C(\C)C[C@H](C)C[C@H](OC)[C@H]2O[C@@](O)(C(=O)C(=O)N3CCCC[C@H]3C(=O)O[C@H](/C(C)=C/[C@@H]3CC[C@@H](O)[C@H](OC)C3)[C@H](C)[C@@H](O)CC1=O)[C@H](C)C[C@@H]2OC [FK-506] | demonstrated similar neurotrophic effects |

Same assay, conditions: with FK-506; Lyons et al.; cited from earlier work

| SMILES | effect on FK-506 neurotrophic effects in sensory ganglia |
| --- | --- |
| CO[C@H]1C[C@@H]2CC[C@@H](C)[C@@](O)(O2)C(=O)C(=O)N2CCCC[C@H]2C(=O)O[C@H]([C@H](C)C[C@@H]2CC[C@@H](O)[C@H](OC)C2)CC(=O)[C@H](C)/C=C(\C)[C@@H](O)[C@@H](OC)C(=O)[C@H](C)C[C@H](C)/C=C/C=C/C=C/1C [rapamycin] | those effects were blocked by rapamycin |

Tested on: ryanodine receptor (RyR)
Test: not given
Details: cited from earlier work

| SMILES | dissociating FKBP12 from the receptor |
| --- | --- |
| C=CC[C@@H]1/C=C(\C)C[C@H](C)C[C@H](OC)[C@H]2O[C@@](O)(C(=O)C(=O)N3CCCC[C@H]3C(=O)O[C@H](/C(C)=C/[C@@H]3CC[C@@H](O)[C@H](OC)C3)[C@H](C)[C@@H](O)CC1=O)[C@H](C)C[C@@H]2OC [FK-506] | capable of dissociating FKBP12 from the receptor |
| CO[C@H]1C[C@@H]2CC[C@@H](C)[C@@](O)(O2)C(=O)C(=O)N2CCCC[C@H]2C(=O)O[C@H]([C@H](C)C[C@@H]2CC[C@@H](O)[C@H](OC)C2)CC(=O)[C@H](C)/C=C(\C)[C@@H](O)[C@@H](OC)C(=O)[C@H](C)C[C@H](C)/C=C/C=C/C=C/1C [rapamycin] | capable of dissociating FKBP12 from the receptor |

Tested on: PC12 rat pheochromocytoma cells
Test: not given
Details: with FK-506; Lyons et al.; cited from earlier work

| SMILES | effect on FK-506-induced neurite outgrowth | neurotrophic effect in combination with FK-506 |
| --- | --- | --- |
| CO[C@H]1C[C@@H]2CC[C@@H](C)[C@@](O)(O2)C(=O)C(=O)N2CCCC[C@H]2C(=O)O[C@H]([C@H](C)C[C@@H]2CC[C@@H](O)[C@H](OC)C2)CC(=O)[C@H](C)/C=C(\C)[C@@H](O)[C@@H](OC)C(=O)[C@H](C)C[C@H](C)/C=C/C=C/C=C/1C [rapamycin] | did not inhibit the effects of FK-506 on neurite outgrowth | additive effect with FK-506 |

Same assay, conditions: with NGF; rat pheochromocytoma cell line; Lyons et al.; cited from earlier work

| SMILES | neurite outgrowth (synergy with NGF) |
| --- | --- |
| C=CC[C@@H]1/C=C(\C)C[C@H](C)C[C@H](OC)[C@H]2O[C@@](O)(C(=O)C(=O)N3CCCC[C@H]3C(=O)O[C@H](/C(C)=C/[C@@H]3CC[C@@H](O)[C@H](OC)C3)[C@H](C)[C@@H](O)CC1=O)[C@H](C)C[C@@H]2OC [FK-506] | acts synergistically with nerve growth factor (NGF) in stimulating neurite outgrowth |
